Measurements from ChEMBL document CHEMBL1147893, “Carbonic anhydrase inhibitors: the X-ray crystal structure of the adduct of N-hydroxysulfamide with isozyme II explains why this new zinc binding function is effective in the design of potent inhibitors” (Bioorg Med Chem Lett, 2007).

Key:
[1] = molecular target: Carbonic anhydrase 12 (Homo sapiens) (UniProt O43570)
Description: Inhibition of human recombinant carbonic anhydrase 12 catalytic domain by CO2 hydrase method

[2] = molecular target: Carbonic anhydrase 9 (Homo sapiens) (UniProt Q16790)
Description: Inhibition of human recombinant carbonic anhydrase 9 catalytic domain by CO2 hydrase method

[3] = molecular target: Carbonic anhydrase 2 (Homo sapiens) (UniProt P00918)
Description: Inhibition of human recombinant carbonic anhydrase 2

[4] = molecular target: Carbonic anhydrase 1 (Homo sapiens) (UniProt P00915)
Chain of Carbonic anhydrase 1 (Homo sapiens) (P00915 2-261 limits assumed): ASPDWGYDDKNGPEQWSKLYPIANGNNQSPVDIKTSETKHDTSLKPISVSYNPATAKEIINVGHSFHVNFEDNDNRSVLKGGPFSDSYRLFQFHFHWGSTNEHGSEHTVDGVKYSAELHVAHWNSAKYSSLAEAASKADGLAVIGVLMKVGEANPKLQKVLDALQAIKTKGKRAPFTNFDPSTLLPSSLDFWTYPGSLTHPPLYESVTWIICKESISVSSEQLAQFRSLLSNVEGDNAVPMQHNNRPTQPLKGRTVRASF
Description: Inhibition of human recombinant carbonic anhydrase 1

Chain of Carbonic anhydrase 12 (Homo sapiens) (O43570 whole entry): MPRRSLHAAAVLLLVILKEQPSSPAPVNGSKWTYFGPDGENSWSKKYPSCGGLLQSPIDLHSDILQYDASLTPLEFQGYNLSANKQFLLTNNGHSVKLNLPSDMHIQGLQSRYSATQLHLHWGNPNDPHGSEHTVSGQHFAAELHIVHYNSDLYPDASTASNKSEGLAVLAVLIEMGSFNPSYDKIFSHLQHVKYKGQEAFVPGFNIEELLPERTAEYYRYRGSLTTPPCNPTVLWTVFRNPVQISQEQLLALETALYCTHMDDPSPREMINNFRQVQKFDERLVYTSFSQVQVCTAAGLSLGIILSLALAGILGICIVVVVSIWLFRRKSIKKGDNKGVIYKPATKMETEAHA

NS(=O)(=O)O
Kinact [1]: 10.7 10^3nM | Kinact [2]: 9.2 10^3nM | Kinact [3]: 0.39 10^6nM | Kinact [4]: 0.21 10^5nM

O=S(=O)([O-])[O-].[Na+].[Na+]
Kinact [1]: 7.7 10^5nM | Kinact [2]: > 300 10^6nM | Kinact [3]: > 300 10^6nM | Kinact [4]: 6.3 10^6nM
